Test results from paper PMC2707755 (Organic letters, 2009).
Like-named read-outs stand apart in the source and are kept apart here.

Assays:
PP-1 [1] = test: PP inhibition assay, PP-1; assay type: biochemical; details: triplicate
A549 lung adenocarcinoma = test: cytotoxicity against A549 lung adenocarcinoma cell line; assay type: cell-based; details: read-out: cytotoxicity IC50, A549; A549 lung adenocarcinoma
MCF7 breast carcinoma = test: cytotoxicity against MCF7 breast carcinoma cell line; assay type: cell-based; details: read-out: cytotoxicity IC50, MCF7; MCF7 breast carcinoma
PP-2A [2] = test: PP inhibition assay, PP-2A; assay type: biochemical; details: triplicate
[3] = system: HT29 colon adenocarcinoma; test: cytotoxicity against HT29 colon adenocarcinoma cell line; assay type: cell-based; details: read-out: cytotoxicity IC50, HT29; HT29 colon adenocarcinoma
Du145 colon carcinoma = test: cytotoxicity against Du145 colon carcinoma cell line; assay type: cell-based; details: read-out: cytotoxicity IC50, Du145
PP-2A [4] = details: read-out: IC50 PP-2A; cited from earlier work
PP-1 [5] = details: cited from earlier work
[6] = cytotoxicity against A549 lung adenocarcinoma cell line; assay type: cell-based; details: human, A549 lung adenocarcinoma cells
[7] = cytotoxicity against MCF7 breast carcinoma cell line; assay type: cell-based; details: human, MCF7 breast carcinoma cells
[8] = cytotoxicity against HT29 colon adenocarcinoma cell line; assay type: cell-based; details: human, HT29 colon adenocarcinoma cells
[9] = read-out: IC50 PP-1, pH 7.5, pH 7.5
[10] = read-out: IC50 PP-1, pH 8.4, pH 8.4

With 3′-deshydroxy-TTM [compound 3] the IC50 (PP-1 [1]; [9]) was 470 nM, the IC50 (PP-1 [1]; [10]) was 677 nM and the IC50 (A549 lung adenocarcinoma) was 26600 ± 6400 nM. It also gave an IC50 (MCF7 breast carcinoma) of 15600 ± 900 nM, an IC50 (PP-2A [2]; read-out: IC50 PP-2A, pH 7.5) of 15600 nM and an IC50 (PP-2A [2]; read-out: IC50 PP-2A, pH 8.4) of 15300 nM. For the same compound, the IC50 [3] was 7350 ± 190 nM and the IC50 (Du145 colon carcinoma) was 4240 ± 110 nM.
For tautomycetin [compound 2], the IC50 (PP-2A [4]) is listed as 62 nM, the “higher affinity for PP-1 than for PP-2A” value (PP-1 [5]; PP-1 over PP-2A) is listed as about 40 fold and the IC50 (PP-1 [5]; read-out: IC50 PP-1) is listed as 1.6 nM.
`CO[C@H]([C@H](O)CC(=O)[C@@H](C)[C@@H](O)CC[C@@H](C)[C@@H]1O[C@]2(CC[C@@H](C)[C@H](CC[C@H](C)C(C)=O)O2)CC[C@@H]1C)[C@H](OC(=O)C[C@@H](O)C1=C(C)C(=O)OC1=O)C(C)C` [compound 1, Tautomycin, reference compound] gave an IC50 (PP-1 [1]; [9]) of 0.58 nM, an IC50 (PP-1 [1]; [10]) of 0.86 nM and an IC50 [6] of 1660 ± 140 nM. The IC50 [7] was 1800 ± 120 nM, the IC50 (PP-2A [2]; read-out: IC50 PP-2A, pH 7.5) was 15 nM and the IC50 (PP-2A [2]; read-out: IC50 PP-2A, pH 8.4) was 42.6 nM. The IC50 [8] was 590 ± 10 nM.
In the case of C3′ epi-TTM, the “less effective at PP-1 inhibition than 1” value (PP-1 [5]; relative to 1) is given as ~ 1000 fold.
